The source of these data is patent US20130295154A1, “POLY(METH)ACRYLATE BASED MICROCAPSULES COMPRISING PHEROMONE” (BASF SE, priority 2011, published 2013).

The assay concerns male codling moths. Nature of the assay: Wind tunnel test, behavioral responses of male codling moths. Type of assay: in vivo, Cydia pomonella (codling moth).
Setting [1] is: Example 5, 100 μg alone, initial values.
[2] abbreviates: Example 6, mean percentage, 100 μg alone.
[3] abbreviates: Example 6, mean percentage, 100000 μg alone.

Molecules are shown by their SMILES.

Take `C/C=C/C=C/CCCCCCCO` [codlemone, (E,E)-8,10-dodecadien-1-ol]: under setting [1], the “Oriented Flight of Males” value worked out at 55, the “Source Contact of Males” value is 40 and the “Upwind Response of Males” value turned out to be 60. Under setting [2], the “Oriented Flight of Males” value is reported as 60%, the “Source Contact of Males” value is listed as 50% and the “Upwind Response of Males” value is 70%.
Take `CC(C)=CCC/C(C)=C/CC/C(C)=C/CO` [E,E-farnesol]: under setting [3], the “Oriented Flight of Males” value is recorded as 0%, the “Source Contact of Males” value is given as 0% and the “Upwind Response of Males” value worked out at 25%.
For `CCCCCOC(C)=O` [amyl acetate], under setting [3], the “Oriented Flight of Males” value came to 5%, the “Source Contact of Males” value came out at 0% and the “Upwind Response of Males” value is listed as 30%.
In the same order, the values of `CCCCC/C=C\C=C\C(=O)OCC` [pear ester, ethyl (2E,4Z)-decadienoate] are 0%, 0% and 27%.
The corresponding values for `COC(=O)c1ccccc1O` [methyl salicylate] are 0%, 0% and 25%.
Consider `CCOC(=O)CC(C)C` [ethyl isovalerate, ethyl 3-methylbutanoate], for which, under setting [3], the “Oriented Flight of Males” value came to 10%, the “Source Contact of Males” value came to 0% and the “Upwind Response of Males” value is reported as 30%.
Turning to `CCCCCCCCCCCCO` [dodecanol], under setting [3], the “Oriented Flight of Males” value worked out at 0%, the “Source Contact of Males” value is on record as 0% and the “Upwind Response of Males” value turned out to be 20%.
